Biological target: T1, hCAR (Homo sapiens, UniProt Q14994)
T1 construct: The human CAR LBD (Lys^108 – Ser^352) was amplified by PCR from cDNA; HIS6; made in house; host or cells: E. coli BL21(DE3)
T1 sequence (Q14994 108-352): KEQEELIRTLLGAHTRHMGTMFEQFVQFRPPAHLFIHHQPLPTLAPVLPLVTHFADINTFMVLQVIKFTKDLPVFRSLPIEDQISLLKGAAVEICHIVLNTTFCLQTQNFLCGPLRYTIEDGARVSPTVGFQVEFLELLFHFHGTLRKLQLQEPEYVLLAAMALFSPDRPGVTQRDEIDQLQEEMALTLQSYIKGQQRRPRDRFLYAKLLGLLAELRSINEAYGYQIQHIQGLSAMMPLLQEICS
Assay: Bottom-up HDX-MS of hCAR with ligand
Assay type: binding
Settings: 100 µM ligand
Procedure: Human CAR protein was prepared at 10 µM in 100 mM ammonium acetate pH 7.25 and diluted into either equilibration buffer (10 mM phosphate buffer, pH 7.5) or deuterated reaction buffer (10 mM phosphate buffer, 150 mM NaCl, pH 7.5 in D2O). After labeling times of 1, 10 or 30 min at 25 °C, samples were mixed with equal volumes of quench buffer (100 mM phosphate buffer, pH 2.5) at 0 °C. […] HDX-MS was performed using a commercial Waters HDX system (M-class ACQUITY UPLC and Water Cyclic IMS Mass Spectrometer). Leucine enkephalin was used for mass correction, and all time points were carried out in triplicate. Samples were digested using an Enzymate BEH Pepsin column (2.1 × 30 mm, Waters) at 15 °C. Peptides were desalted on an ACQUITY UPLC BEH C18 VanGuard Pre-column (2.1 × 5 mm, Waters) and separated using an ACQUITY UPLC BEH C18 column (100 × 1 mm, Waters). ProteinLynx Global server (PLGS) and DynamX software was used for peptide identification and deuterium uptake analysis, respectively. PyMOL 2.5 was used for structural visualization.

What does the source list for CC(c1c[nH]c2ccccc12)c1c[nH]c2ccccc12 [DIE, 3,3’-diindolylethane]?
deuterium uptake change, residues 235–243 (H12/AF2): increased uptake; deuterium uptake difference, amino acids 217–234 (H11): < 10%; difference in deuterium uptake compared to apo hCAR, amino acids 51–65 (H3): > 20%

From publication PMC10960024, “Diindoles produced from commensal microbiota metabolites function as endogenous CAR/Nr1i3 ligands” (Nature Communications, 2024)
